Experimental data reported in patent US9321790B2, “Pyrimidinone derivatives as antimalarial agents” (SANOFI, priority 2012, dated 2016).
Read-outs that look alike come from different tables or passages of the source.

Legend:
[1] = tested on: Plasmodium falciparum (strain NF54); assay: Antimalarial activity test: growth of Plasmodium falciparum in infected human erythrocytes, 3H-hypoxanthine incorporation; assay type: cell-based; conditions: strain NF54 sensitive to chloroquine, 72 h total incubation
Protocol: The compounds according to the invention underwent pharmacological trials to determine their inhibitory effect on the growth of Plasmodium falciparum (strain NF54 sensitive to inhibition with chloroquine) in an in vitro test using infected human erythrocytes. The growth of the parasites is measured via the incorporation of tritiated hypoxanthine compared with the incorporation in the absence of drug. The tests are performed in 96-well microplates (Falcon™ 96-well microtiter plates, ref. No. 353072) in RPMI 1640 solutions (10.44 g/l) (without hypoxanthine) with HEPES (5.94 g/l), NaHCO3 (2.1 g/l), neomycin ([…])+AlbumaxR II (5 g/l) supplemented with human erythrocytes with a final hematocrit of 1.25% and a final parasitemia of 0.15%.
The stock solution of the compounds is prepared at 10 mg/mL in DMSO. For the test, fresh solutions at the desired concentrations are prepared in RPMI medium. For the test, 100 μl of compound are mixed with 100 μl of infected blood. For the determination of the IC50 values, the compounds are tested in twofold serial dilution.
The plates are incubated at 37° C. under a humid atmosphere with 93% N2, 4% CO2 and 3% O2. After 48 hours, 50 μl of ^3H-hypoxanthine (=0.5 μCi) in RPMI medium are added to each well and incubation is continued for a further 24 hours. Next, the plates are washed with distilled water and the cell lyzate is transferred onto fiberglass filters. The filters are dried and the radioactivity is determined by liquid scintillation. The results in cpm are converted into percentages of inhibition. The inhibitory activity is given by the concentration that inhibits 50% of the growth of the parasite relative to a control without compound.

human PI3Kα = human PI3Kα (Homo sapiens (Human), UniProt P42336); assay: Human PI3Kα activity test (luciferin/luciferase ATP consumption, KinaseGlo); assay type: biochemical
Protocol: The test uses a luciferin/luciferase system to measure the concentration of ATP and its consumption during the enzymatic reaction.
After 90 minutes, the reaction is quenched by adding 20 μl/well of KinaseGlo reagent (Promega V6713). After 10 minutes in the dark, the luminescence is read using a PHERAStar microplate reader (reading at 0.8 sec/well).

[2] = Plasmodium falciparum, Erythrocyte
[3] = PI3Kα (p110α/p85α), 50 μM PIP2, 2 μM ATP, 90 minutes, read-out: IC50 Human PI3Kα

human PI3Kα, sequence (P42336 whole entry): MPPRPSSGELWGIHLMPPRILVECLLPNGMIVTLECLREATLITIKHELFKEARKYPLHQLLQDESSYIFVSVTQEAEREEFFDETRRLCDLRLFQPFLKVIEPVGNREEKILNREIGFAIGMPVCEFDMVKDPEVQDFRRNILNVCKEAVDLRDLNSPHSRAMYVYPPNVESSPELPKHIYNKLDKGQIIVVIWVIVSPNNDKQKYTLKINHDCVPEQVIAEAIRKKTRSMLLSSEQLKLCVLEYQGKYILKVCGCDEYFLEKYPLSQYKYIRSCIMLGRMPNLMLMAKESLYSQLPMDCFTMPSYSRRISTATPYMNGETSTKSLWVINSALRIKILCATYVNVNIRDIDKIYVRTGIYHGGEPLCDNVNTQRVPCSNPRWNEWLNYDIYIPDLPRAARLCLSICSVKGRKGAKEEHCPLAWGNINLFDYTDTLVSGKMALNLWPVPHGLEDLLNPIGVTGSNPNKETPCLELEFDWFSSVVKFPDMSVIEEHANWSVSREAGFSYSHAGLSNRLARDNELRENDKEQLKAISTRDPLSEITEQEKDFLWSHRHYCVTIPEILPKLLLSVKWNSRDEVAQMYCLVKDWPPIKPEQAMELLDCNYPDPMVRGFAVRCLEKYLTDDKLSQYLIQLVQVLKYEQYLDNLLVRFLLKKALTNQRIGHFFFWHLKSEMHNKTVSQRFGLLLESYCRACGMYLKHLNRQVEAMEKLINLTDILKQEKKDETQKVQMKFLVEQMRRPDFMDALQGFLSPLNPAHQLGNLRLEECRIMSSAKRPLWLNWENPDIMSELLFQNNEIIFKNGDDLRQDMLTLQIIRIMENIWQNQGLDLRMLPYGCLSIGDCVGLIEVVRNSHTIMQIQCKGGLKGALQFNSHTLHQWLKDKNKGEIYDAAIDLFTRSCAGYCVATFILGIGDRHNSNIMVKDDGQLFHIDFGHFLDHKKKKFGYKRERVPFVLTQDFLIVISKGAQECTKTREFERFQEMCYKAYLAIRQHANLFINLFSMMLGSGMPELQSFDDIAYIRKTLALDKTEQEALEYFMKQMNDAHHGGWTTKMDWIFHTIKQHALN
human PI3Kα, sequence (P27986 whole entry partner): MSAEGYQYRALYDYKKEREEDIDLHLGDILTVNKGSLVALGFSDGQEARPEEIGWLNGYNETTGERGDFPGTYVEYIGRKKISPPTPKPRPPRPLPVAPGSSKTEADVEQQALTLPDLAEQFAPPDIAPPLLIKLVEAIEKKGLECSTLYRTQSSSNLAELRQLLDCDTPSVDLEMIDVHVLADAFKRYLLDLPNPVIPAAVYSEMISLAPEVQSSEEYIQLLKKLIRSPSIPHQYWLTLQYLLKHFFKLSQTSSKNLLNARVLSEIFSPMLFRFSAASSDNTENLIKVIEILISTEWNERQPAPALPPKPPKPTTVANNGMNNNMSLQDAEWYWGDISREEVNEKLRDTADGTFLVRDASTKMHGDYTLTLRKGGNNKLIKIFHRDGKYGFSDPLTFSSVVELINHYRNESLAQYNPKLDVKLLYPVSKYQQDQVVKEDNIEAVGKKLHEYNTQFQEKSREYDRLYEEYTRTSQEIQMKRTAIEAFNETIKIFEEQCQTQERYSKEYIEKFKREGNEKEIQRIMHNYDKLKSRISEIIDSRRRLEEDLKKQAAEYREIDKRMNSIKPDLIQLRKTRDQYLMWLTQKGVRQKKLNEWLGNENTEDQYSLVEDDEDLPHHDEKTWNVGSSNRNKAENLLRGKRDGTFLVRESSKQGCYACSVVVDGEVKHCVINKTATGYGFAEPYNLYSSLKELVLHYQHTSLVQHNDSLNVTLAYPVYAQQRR

Row | IC50 [1, 2] [µM] | IC50 (human PI3Kα; [3]) [µM] | IC50 [1] [µM] | SMILES | IC50 (human PI3Kα) [µM]
1 | 0.098 | > 10 |  | Cc1ncoc1C(=O)CN1c2nc(N3C[C@@H]4C[C@H]3CO4)cc(=O)n2CC[C@H]1C(F)(F)F [Compound 39, (8S)-9-[2-(4-Methyloxazol-5-yl)-2-oxoethyl]-2-(1S,4S)-2-oxa-5-azabicyclo[2.2.1]hept-5-yl-8-trifluoromethyl-6,7,8,9-tetrahydropyrimido[1,2-a]pyrimidin-4-one] | 
2 | > 0.2 | > 10 |  | CN(C)c1ccc(C(=O)CN2c3nc(N4C[C@@H]5C[C@H]4CO5)cc(=O)n3C[C@@]2(C)C(F)(F)F)cn1 [Compound 8, 1-[2-(6-Dimethylaminopyrid-3-yl)-2-oxoethyl]-2-(S)-methyl-7-(1S,4S)-2-oxa-5-azabicyclo[2.2.1]hept-5-yl-2-trifluoromethyl-2,3-dihydro-1H-imidazo[1,2-a]pyrimidin-5-one] | 
3 | > 0.2 | > 10 |  | O=C(CN1c2nc(N3C[C@@H]4C[C@H]3CO4)cc(=O)n2CC[C@H]1C(F)(F)F)c1ccc(NC2CC2)nc1 [Compound 22, (8S)-9-[2-(6-Cyclopropylaminopyrid-3-yl)-2-oxoethyl]-2-(1S,4S)-2-oxa-5-azabicyclo[2.2.1]hept-5-yl-8-trifluoromethyl-6,7,8,9-tetrahydropyrimido[1,2-a]pyrimidin-4-one] | 
4 | 0.08 | > 10 |  | O=C(CN1c2nc(N3C[C@@H]4C[C@H]3CO4)cc(=O)n2CC[C@H]1C(F)(F)F)c1ccc(F)c(F)c1 [Compound 40, (S)-9-[2-(3,4-Difluorophenyl)-2-oxoethyl]-2-(1S,4S)-2-oxa-5-azabicyclo[2.2.1]hept-5-yl-8-trifluoromethyl-6,7,8,9-tetrahydropyrimido[1,2-a]pyrimidin-4-one] | 
5 |  | > 10 | 0.14 | O=C(CN1c2nc(N3C[C@@H]4C[C@H]3CO4)cc(=O)n2CC[C@H]1C(F)(F)F)N1CC2CCC(C1)O2 [Compound 98, (8S)-2-(1S,4S)-2-Oxa-5-azabicyclo[2.2.1]hept-5-yl-9-[2-(8-oxa-3-azabicyclo[3.2.1]oct-3-yl)-2-oxoethyl]-8-trifluoromethyl-6,7,8,9-tetrahydropyrimido[1,2-a]pyrimidin-4-one] | 
6 | 0.03 | > 10 |  | CC(=O)N1CCC(C(=O)CN2c3nc(N4C[C@@H]5C[C@H]4CO5)cc(=O)n3CC[C@H]2C(F)(F)F)CC1 [Compound 119, (8S)-9-[2-(1-Acetylpiperid-4-yl)-2-oxoethyl]-2-(1S,4S)-2-oxa-5-azabicyclo[2.2.1]hept-5-yl-8-trifluoromethyl-6,7,8,9-tetrahydropyrimido[1,2-a]pyrimidin-4-one] | 
7 | 0.16 | ≥ 10 |  | Cc1ccc(C(=O)CN2c3nc(N4C[C@@H]5C[C@H]4CO5)cc(=O)n3C[C@@]2(C)C(F)(F)F)cn1 [Compound 17, 2-methyl-1-[2-(6-methylpyrid-3-yl)-2-oxoethyl]-7-(1S,4S)-2-oxa-5-azabicyclo[2.2.1]hept-5-yl-2-((S)-trifluoromethyl)-2,3-dihydro-1H-imidazo[1,2-a]pyrimidin-5-one] | 
8 | 0.02 | 3.13 |  | CC(C)(CN1c2nc(N3C[C@@H]4C[C@H]3CO4)cc(=O)n2CC[C@H]1C(F)(F)F)c1ccncc1 [Compound 1, (8S)-9-(2-methyl-2-pyrid-4-ylpropyl)-2-(1S,4S)-2-oxa-5-azabicyclo[2.2.1]hept-5-yl-8-trifluoromethyl-6,7,8,9-tetrahydropyrimido[1,2-a]pyrimidin-4-one] | 
9 |  | > 10 | > 0.24 | CC(C)(C)C(=O)CN1c2nc(N3C[C@@H]4C[C@H]3CO4)cc(=O)n2C[C@@]1(C)C(F)(F)F [Compound 30, 1-(3,3-Dimethyl-2-oxobutyl)-2-methyl-7-(1S,4S)-2-oxa-5-azabicyclo[2.2.1]hept-5-yl-2-((S)-trifluoromethyl)-2,3-dihydro-1H-imidazo[1,2-a]pyrimidin-5-one] | 
10 | 0.13 | > 10 |  | O=C(CN1c2nc(N3C[C@@H]4C[C@H]3CO4)cc(=O)n2CC[C@H]1C(F)(F)F)c1ccc2nsnc2c1 [Compound 61, (8S)-9-(2-Benzo[1,2,5]thiadiazol-5-yl-2-oxoethyl)-2-(1S,4S)-2-oxa-5-azabicyclo[2.2.1]hept-5-yl-8-trifluoromethyl-6,7,8,9-tetrahydropyrimido[1,2-a]pyrimidin-4-one] | 
11 | 0.013 | > 10 |  | O=C(CN1c2nc(N3C[C@@H]4C[C@H]3CO4)cc(=O)n2CC[C@H]1C(F)(F)F)c1ccc2snnc2c1 [Compound 47, (8S)-9-(2-benzo[1,2,3]thiadiazol-5-yl-2-oxoethyl)-2-(1S,4S)-2-oxa-5-azabicyclo[2.2.1]hept-5-yl-8-trifluoromethyl-6,7,8,9-tetrahydropyrimido[1,2-a]pyrimidin-4-one] | 
12 | 0.64 | 1.6 |  | C[C@@]1(C(F)(F)F)Cn2c(nc(N3CC4CCC(C3)O4)cc2=O)N1C[C@@H](O)c1ccccc1 [Compound 79, (2S)-1-((S)-2-Hydroxy-2-phenylethyl)-2-methyl-7-(8-oxa-3-azabicyclo[3.2.1]oct-3-yl)-2-trifluoromethyl-2,3-dihydro-1H-imidazo[1,2-a]pyrimidin-5-one] | 
13 | 0.009 | 2.9 |  | O=c1cc(N2C[C@@H]3C[C@H]2CO3)nc2n1CC[C@@H](C(F)(F)F)N2CCc1cccnc1 [Compound 12, (8S)-2-(1S,4S)-2-oxa-5-azabicyclo[2.2.1]hept-5-yl-9-(2-pyrid-3-ylethyl)-8-trifluoromethyl-6,7,8,9-tetrahydropyrimido[1,2-a]pyrimidin-4-one] | 
14 | 0.037 | 0.73 |  | C[C@@]1(C(F)(F)F)Cn2c(nc(N3CC4CCC(C3)O4)cc2=O)N1CCc1ccc(O)cc1 [Compound 72, (S)-1-[2-(4-hydroxyphenyl)ethyl]-2-methyl-7-(8-oxa-3-azabicyclo[3.2.1]oct-3-yl)-2-trifluoromethyl-2,3-dihydro-1H-imidazo[1,2-a]pyrimidin-5-one] | 
15 | 0.14 | 1.3 |  | O=C(CN1c2nc(N3CC4CCC(C3)O4)cc(=O)n2CC[C@H]1C(F)(F)F)c1ccccn1 [Compound 88, (8S)-2-(8-Oxa-3-azabicyclo[3.2.1]oct-3-yl)-9-(2-oxo-2-pyrid-2-ylethyl)-8-trifluoromethyl-6,7,8,9-tetrahydropyrimido[1,2-a]pyrimidin-4-one] | 
16 | 0.006 | 2.74 |  | CCC(O)(CC)CCN1c2nc(N3C[C@@H]4C[C@H]3CO4)cc(=O)n2CC[C@H]1C(F)(F)F [Compound 49, (8S)-9-(3-ethyl-3-hydroxypentyl)-2-(1S,4S)-2-oxa-5-azabicyclo[2.2.1]hept-5-yl-8-trifluoromethyl-6,7,8,9-tetrahydropyrimido[1,2-a]pyrimidin-4-one] | 
17 | 0.008 | 2.44 |  | CCNC(=O)Nc1ccc(CCN2c3nc(N4C[C@@H]5C[C@H]4CO5)cc(=O)n3C[C@@]2(C)C(F)(F)F)cc1 [Compound 24, 1-ethyl-3-(4-{2-[(1S,4S)-2-methyl-7-2-oxa-5-azabicyclo[2.2.1]hept-5-yl-5-oxo-2-((S)-trifluoromethyl)-2,3-dihydro-5H-imidazo[1,2-a]pyrimidin-1-yl]ethyl}phenyl)urea] | 
18 | 0.023 | 0.81 |  | COc1cc(F)ccc1[C@H](O)CN1c2nc(N3CC4CCC(C3)O4)cc(=O)n2CC[C@H]1C(F)(F)F [Compound 71, (8S)-9-[(S)-2-(4-fluoro-2-methoxyphenyl)-2-hydroxyethyl]-2-(8-oxa-3-azabicyclo[3.2.1]oct-3-yl)-8-trifluoromethyl-6,7,8,9-tetrahydropyrimido[1,2-a]pyrimidin-4-one] | 
19 | 0.16 | 0.82 |  | C[C@@]1(C(F)(F)F)Cn2c(nc(N3CC4CCC(C3)O4)cc2=O)N1CCCc1ccccc1 [Compound 77, (S)-2-Methyl-7-(8-oxa-3-azabicyclo[3.2.1]oct-3-yl)-1-(3-phenylpropyl)-2-trifluoromethyl-2,3-dihydro-1H-imidazo[1,2-a]pyrimidin-5-one] | 
20 | 0.065 | > 10 |  | Cn1nc(CN2c3nc(N4C[C@@H]5C[C@H]4CO5)cc(=O)n3CC[C@H]2C(F)(F)F)c2ccccc21 [Compound 51, (8S)-9-(1-methyl-1H-indazol-3-ylmethyl)-2-(1S,4S)-2-oxa-5-azabicyclo[2.2.1]hept-5-yl-8-trifluoromethyl-6,7,8,9-tetrahydropyrimido[1,2-a]pyrimidin-4-one] | 

Row | SMILES | IC50 [1, 2] [µM] | IC50 (human PI3Kα; [3]) [µM] | IC50 [1] [µM] | IC50 (human PI3Kα) [µM]
21 | O=C(CN1c2nc(N3C4CCC3COC4)cc(=O)n2CC[C@H]1C(F)(F)F)c1cccnc1 [Compound 85, (8S)-2-(3-Oxa-8-azabicyclo[3.2.1]oct-8-yl)-9-(2-oxo-2-pyrid-3-ylethyl)-8-trifluoromethyl-6,7,8,9-tetrahydropyrimido[1,2-a]pyrimidin-4-one] | 0.15 |  |  | > 10
